In patent US20220168307A1, “TREATMENT OF SMA” (Hoffmann-La Roche Inc., priority 2019, published 2022):
“Also recorded” adds a separate entry of the source. Read-outs that look alike come from different tables or passages of the source.

How the values were obtained:
CYP3A4 [1] = target: T1, CYP3A4 (Homo sapiens, UniProt P08684); conditions: microsomes, pH 7.4
Method: (§1) Donors CMV negative for serology are unm
(§2) All incubations were conducted in duplicate.
(§3) The first order rate constant for inactivation (λ or kabs) was estimated from slopes of the linear portion of the curves.
Target sequence in this assay (P08684 whole entry): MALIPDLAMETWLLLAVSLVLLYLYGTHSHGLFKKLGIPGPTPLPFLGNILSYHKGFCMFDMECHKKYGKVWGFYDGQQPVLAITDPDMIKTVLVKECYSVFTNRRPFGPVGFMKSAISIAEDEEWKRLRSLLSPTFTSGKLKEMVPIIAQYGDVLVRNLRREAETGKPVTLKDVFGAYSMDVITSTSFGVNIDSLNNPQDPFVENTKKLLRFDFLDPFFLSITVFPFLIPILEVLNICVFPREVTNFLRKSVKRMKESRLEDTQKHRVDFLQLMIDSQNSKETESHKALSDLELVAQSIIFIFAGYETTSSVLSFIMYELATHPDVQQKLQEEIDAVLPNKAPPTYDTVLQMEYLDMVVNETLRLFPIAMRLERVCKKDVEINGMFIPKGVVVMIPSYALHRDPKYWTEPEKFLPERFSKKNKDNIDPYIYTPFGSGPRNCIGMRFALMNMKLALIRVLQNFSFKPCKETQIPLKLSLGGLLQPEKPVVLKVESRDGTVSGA

CYP3A4 [2] = conditions: human, pH 7.4
Method: as §1, §2, §3

CYP2C9 [3] = target: T2, CYP2C9 (Homo sapiens, UniProt P11712); experiment: biochemical
CYP2C19 [4] = target: T3, CYP2C19 (Homo sapiens, UniProt P33261); experiment: in vitro; conditions: pooled human liver microsomes, pH 7.4, probe (S)-mephenytoin
CYP3A4 [5] = target: T1, CYP3A4; experiment: Direct inhibition of CYP3A4 (midazolam and testosterone) in human liver microsomes; format: in vitro ADME; conditions: human, microsomes
Target sequence in this assay (P08684 2-503): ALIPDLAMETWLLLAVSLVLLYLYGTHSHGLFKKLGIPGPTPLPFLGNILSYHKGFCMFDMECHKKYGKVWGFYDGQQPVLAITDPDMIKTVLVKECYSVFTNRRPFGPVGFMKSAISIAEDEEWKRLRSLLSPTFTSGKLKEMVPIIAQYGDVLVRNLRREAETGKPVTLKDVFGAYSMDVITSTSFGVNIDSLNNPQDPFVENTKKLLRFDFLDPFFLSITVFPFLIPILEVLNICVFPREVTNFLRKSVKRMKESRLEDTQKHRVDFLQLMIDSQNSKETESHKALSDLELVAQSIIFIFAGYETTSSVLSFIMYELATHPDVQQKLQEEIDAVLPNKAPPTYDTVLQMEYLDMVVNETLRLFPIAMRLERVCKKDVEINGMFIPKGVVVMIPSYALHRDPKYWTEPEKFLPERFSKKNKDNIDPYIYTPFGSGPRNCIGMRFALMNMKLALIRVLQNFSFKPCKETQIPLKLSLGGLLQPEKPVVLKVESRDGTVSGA

CYP2B6 = target: T4, CYP2B6 (Homo sapiens, UniProt P20813); experiment: biochemical
T4 sequence (P20813 1-491): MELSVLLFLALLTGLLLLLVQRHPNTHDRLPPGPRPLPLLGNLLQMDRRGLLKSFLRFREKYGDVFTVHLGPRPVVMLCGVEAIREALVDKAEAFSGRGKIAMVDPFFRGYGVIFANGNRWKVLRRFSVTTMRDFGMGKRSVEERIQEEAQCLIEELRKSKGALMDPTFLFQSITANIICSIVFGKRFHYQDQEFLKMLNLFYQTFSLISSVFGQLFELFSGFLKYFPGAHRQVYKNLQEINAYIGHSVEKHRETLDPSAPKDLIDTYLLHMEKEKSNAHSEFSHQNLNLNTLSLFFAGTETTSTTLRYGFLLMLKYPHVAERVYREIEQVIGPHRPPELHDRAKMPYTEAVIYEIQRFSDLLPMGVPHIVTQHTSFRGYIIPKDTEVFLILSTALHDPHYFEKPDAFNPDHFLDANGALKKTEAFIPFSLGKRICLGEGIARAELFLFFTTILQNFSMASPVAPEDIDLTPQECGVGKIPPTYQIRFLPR

CYP2C8 [6] = target: T5, CYP2C8 (Homo sapiens, UniProt P10632); experiment: biochemical
T5 sequence (P10632 1-490): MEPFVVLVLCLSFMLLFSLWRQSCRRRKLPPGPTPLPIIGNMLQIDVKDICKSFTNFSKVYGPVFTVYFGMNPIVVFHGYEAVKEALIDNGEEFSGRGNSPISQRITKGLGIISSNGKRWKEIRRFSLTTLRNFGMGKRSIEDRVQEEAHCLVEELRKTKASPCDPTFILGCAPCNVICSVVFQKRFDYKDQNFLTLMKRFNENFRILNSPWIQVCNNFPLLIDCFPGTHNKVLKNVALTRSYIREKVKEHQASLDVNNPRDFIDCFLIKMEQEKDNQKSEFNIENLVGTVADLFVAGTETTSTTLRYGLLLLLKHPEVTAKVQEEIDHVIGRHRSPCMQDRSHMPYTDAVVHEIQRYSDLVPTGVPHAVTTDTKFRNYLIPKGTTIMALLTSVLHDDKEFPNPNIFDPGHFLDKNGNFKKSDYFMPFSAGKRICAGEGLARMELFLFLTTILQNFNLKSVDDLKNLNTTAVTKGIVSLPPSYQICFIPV

CYP2C8 [7] = target: T5, CYP2C8; experiment: Direct inhibition of CYP2C8 (amodiaquine) in human liver microsomes
CYP2C8 [8] = target: T5, CYP2C8; experiment: Time-dependent inhibition (IC50 shift) of CYP2C8 in human liver microsomes; conditions: risdiplam up to 12.5 μM
Method: as §1, §2
(§4) % remaining=(C+I/C^−I)*100

CYP2D6 [9] = target: T6, CYP2D6 (Homo sapiens, UniProt P10635); experiment: biochemical
CYP2C19 [10] = target: T3, CYP2C19; experiment: Direct inhibition of CYP2C19 ((S)-mephenytoin) in human liver microsomes
CYP2C9 [11] = target: T2, CYP2C9; experiment: Time-dependent inhibition (IC50 shift) of CYP2C9 in human liver microsomes; format: in vitro ADME; conditions: risdiplam up to 12.5 μM
Method: as §1, §2, §4

CYP2C19 [12] = target: T3, CYP2C19; experiment: biochemical
CYP2C9 [13] = target: T2, CYP2C9; experiment: in vitro; conditions: pooled human liver microsomes, pH 7.4, probe diclofenac
CYP2D6 [14] = target: T6, CYP2D6

T2 sequence (P11712 whole entry): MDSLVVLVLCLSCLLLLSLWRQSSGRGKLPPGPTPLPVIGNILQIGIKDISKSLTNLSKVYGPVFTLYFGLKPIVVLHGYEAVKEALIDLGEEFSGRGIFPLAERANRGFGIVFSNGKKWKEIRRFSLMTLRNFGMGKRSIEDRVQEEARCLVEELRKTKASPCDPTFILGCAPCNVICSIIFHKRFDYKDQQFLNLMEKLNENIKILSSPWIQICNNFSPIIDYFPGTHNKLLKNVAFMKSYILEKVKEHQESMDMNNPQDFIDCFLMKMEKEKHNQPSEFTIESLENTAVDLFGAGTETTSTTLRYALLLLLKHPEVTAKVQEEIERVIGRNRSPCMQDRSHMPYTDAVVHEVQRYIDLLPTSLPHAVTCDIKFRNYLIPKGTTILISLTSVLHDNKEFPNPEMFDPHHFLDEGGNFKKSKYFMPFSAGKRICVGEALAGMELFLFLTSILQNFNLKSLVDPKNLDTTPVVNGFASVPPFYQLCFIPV
T3 sequence (P33261 whole entry): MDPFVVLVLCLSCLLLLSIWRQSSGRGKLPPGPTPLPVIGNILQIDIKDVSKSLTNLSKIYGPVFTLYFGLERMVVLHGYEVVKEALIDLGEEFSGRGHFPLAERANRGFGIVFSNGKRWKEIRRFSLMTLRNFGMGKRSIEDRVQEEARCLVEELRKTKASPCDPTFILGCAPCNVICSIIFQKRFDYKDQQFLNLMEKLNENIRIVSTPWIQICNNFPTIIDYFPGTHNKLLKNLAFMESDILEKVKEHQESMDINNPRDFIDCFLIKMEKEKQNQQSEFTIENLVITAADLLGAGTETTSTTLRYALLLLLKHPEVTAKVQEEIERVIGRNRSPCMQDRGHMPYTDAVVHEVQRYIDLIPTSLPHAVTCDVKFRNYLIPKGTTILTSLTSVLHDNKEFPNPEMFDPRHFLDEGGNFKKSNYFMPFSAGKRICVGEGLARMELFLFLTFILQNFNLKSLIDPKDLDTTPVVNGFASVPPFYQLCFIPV
T6 sequence (P10635 whole entry): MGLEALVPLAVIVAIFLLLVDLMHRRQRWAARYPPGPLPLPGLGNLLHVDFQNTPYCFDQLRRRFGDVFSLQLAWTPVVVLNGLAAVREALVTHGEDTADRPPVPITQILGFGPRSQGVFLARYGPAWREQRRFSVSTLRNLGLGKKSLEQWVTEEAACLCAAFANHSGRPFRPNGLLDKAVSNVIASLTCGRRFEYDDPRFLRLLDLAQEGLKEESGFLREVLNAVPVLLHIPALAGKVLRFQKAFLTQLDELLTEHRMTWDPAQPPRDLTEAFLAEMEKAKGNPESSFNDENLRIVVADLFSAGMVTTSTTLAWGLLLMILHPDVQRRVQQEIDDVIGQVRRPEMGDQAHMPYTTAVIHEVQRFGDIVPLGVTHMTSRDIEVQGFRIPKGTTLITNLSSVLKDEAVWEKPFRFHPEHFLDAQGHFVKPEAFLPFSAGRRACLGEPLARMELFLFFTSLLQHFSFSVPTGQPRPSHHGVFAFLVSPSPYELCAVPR

Compound: Cc1cn2nc(-c3cc(=O)n4cc(N5CCNC6(CC6)C5)ccc4n3)cc(C)c2n1 [risdiplam, 7-(4,7-diazaspiro[2.5]octan-7-yl)-2-(2,8-dimethylimidazo[1,2-b]pyridazin-6-yl)pyrido[1,2-a]pyrimidin-4-one]
- Percent CYP3A4 activity remaining (CYP3A4 [1]; 0 h, 0.1 μM): 100%
- Percent CYP3A4 activity remaining (CYP3A4 [1]; 0 h, 0.2 μM): 100%
- Percent CYP3A4 activity remaining (CYP3A4 [1]; 0 h, 0.5 μM): 100%
- Percent CYP3A4 activity remaining (CYP3A4 [1]; 0 h, 1.3 μM): 100%
- Percent CYP3A4 activity remaining (CYP3A4 [1]; 0 h, 3.2 μM): 100%
- Percent CYP3A4 activity remaining (CYP3A4 [1]; 0 h, 8 μM): 100%
- Percent CYP3A4 activity remaining (CYP3A4 [1]; 0 h, 12.5 μM): 100%
- Percent CYP3A4 activity remaining (CYP3A4 [1]; 4 min, 0.1 μM): 90%
- Percent CYP3A4 activity remaining (CYP3A4 [1]; 4 min, 0.2 μM): 90%
- Percent CYP3A4 activity remaining (CYP3A4 [1]; 4 min, 0.5 μM): 87%
- Percent CYP3A4 activity remaining (CYP3A4 [1]; 4 min, 1.3 μM): 82%
- Percent CYP3A4 activity remaining (CYP3A4 [1]; 4 min, 3.2 μM): 89%
- Percent CYP3A4 activity remaining (CYP3A4 [1]; 4 min, 8 μM): 76%
- Percent CYP3A4 activity remaining (CYP3A4 [1]; 4 min, 12.5 μM): 62%
- Percent CYP3A4 activity remaining (CYP3A4 [1]; 0.25 h, 0.1 μM): 80%
- Percent CYP3A4 activity remaining (CYP3A4 [1]; 0.25 h, 0.2 μM): 80%
- Percent CYP3A4 activity remaining (CYP3A4 [1]; 0.25 h, 0.5 μM): 77%
- Percent CYP3A4 activity remaining (CYP3A4 [1]; 0.25 h, 1.3 μM): 71%
- Percent CYP3A4 activity remaining (CYP3A4 [1]; 0.25 h, 3.2 μM): 62%
- Percent CYP3A4 activity remaining (CYP3A4 [1]; 0.25 h, 8 μM): 41%
- Percent CYP3A4 activity remaining (CYP3A4 [1]; 0.25 h, 12.5 μM): 29%
- Percent CYP3A4 activity remaining (CYP3A4 [1]; 0.5 h, 0.1 μM): 78%
- Percent CYP3A4 activity remaining (CYP3A4 [1]; 0.5 h, 0.2 μM): 78%
- Percent CYP3A4 activity remaining (CYP3A4 [1]; 0.5 h, 0.5 μM): 75%
- Percent CYP3A4 activity remaining (CYP3A4 [1]; 0.5 h, 1.3 μM): 65%
- Percent CYP3A4 activity remaining (CYP3A4 [1]; 0.5 h, 3.2 μM): 49%
- Percent CYP3A4 activity remaining (CYP3A4 [1]; 0.5 h, 8 μM): 25%
- Percent CYP3A4 activity remaining (CYP3A4 [1]; 0.5 h, 12.5 μM): 17%
- Percent CYP3A4 activity remaining (CYP3A4 [1]; 0.75 h, 0.1 μM): 72%
- Percent CYP3A4 activity remaining (CYP3A4 [1]; 0.75 h, 0.2 μM): 72%
- Percent CYP3A4 activity remaining (CYP3A4 [1]; 0.75 h, 0.5 μM): 68%
- Percent CYP3A4 activity remaining (CYP3A4 [1]; 0.75 h, 1.3 μM): 55%
- Percent CYP3A4 activity remaining (CYP3A4 [1]; 0.75 h, 3.2 μM): 39%
- Percent CYP3A4 activity remaining (CYP3A4 [1]; 0.75 h, 8 μM): 19%
- Percent CYP3A4 activity remaining (CYP3A4 [1]; 0.75 h, 12.5 μM): 13%
- Percent CYP3A4 activity remaining (CYP3A4 [1]; 1 h, 0.1 μM): 65%
- Percent CYP3A4 activity remaining (CYP3A4 [1]; 1 h, 0.2 μM): 65%
- Percent CYP3A4 activity remaining (CYP3A4 [1]; 1 h, 0.5 μM): 59%
- Percent CYP3A4 activity remaining (CYP3A4 [1]; 1 h, 1.3 μM): 48%
- Percent CYP3A4 activity remaining (CYP3A4 [1]; 1 h, 3.2 μM): 36%
- Percent CYP3A4 activity remaining (CYP3A4 [1]; 1 h, 8 μM): 15%
- Percent CYP3A4 activity remaining (CYP3A4 [1]; 1 h, 12.5 μM): 10%
- KI (CYP3A4 [2]): 13 µM
- IC50 (CYP2C9 [3]): > 12.5 µM
- activity (CYP2C19 [4]): 102%
- IC50 (CYP3A4 [5]; pH 7.4, IC50, direct inhibition, substrate Midazolam): > 12.5 µM
- IC50 (CYP3A4 [5]; pH 7.4, IC50, direct inhibition, substrate Testosterone): 11 µM
- IC50 (CYP3A4 [5]; pH 7.4, IC50, direct, CYP3A4-Midazolam Activity): < 12.5 µM
- IC50 (CYP2B6): > 12.5 µM
- IC50 (CYP2C8 [6]): > 12.5 µM
- % Control activity at (CYP2C8 [7]; direct inhibition, substrate Amodiaquine, concentration not given, duplicates): 91%
- reversible (direct) inhibition (in words) (CYP2C8 [7]; risdiplam up to 12.5 μM): did not show any significant reversible or time-dependent inhibition; also recorded: No significant reversible or time-dependent inhibition; also recorded: No significant reversible inhibition; also recorded: low potential to cause direct or time-dependent inhibition
- time-dependent inhibition (in words) (CYP2C8 [8]): did not show any significant reversible or time-dependent inhibition; also recorded: No significant reversible or time-dependent inhibition; also recorded: No significant time-dependent inhibition; also recorded: low potential to cause direct or time-dependent inhibition
- IC50 (CYP2D6 [9]): > 12.5 µM
- % Control activity at (CYP2C19 [10]; direct inhibition, substrate (S)-Mephenytoin, concentration not given, duplicates): 97%
- reversible (direct) inhibition (in words) (CYP2C19 [10]; risdiplam up to 12.5 μM): did not show any significant reversible or time-dependent inhibition; also recorded: No significant reversible or time-dependent inhibition; also recorded: No significant reversible inhibition; also recorded: low potential to cause direct or time-dependent inhibition
- time-dependent inhibition (in words) (CYP2C9 [11]): did not show any significant reversible or time-dependent inhibition; also recorded: No significant reversible or time-dependent inhibition; also recorded: No significant time-dependent inhibition; also recorded: low potential to cause direct or time-dependent inhibition
- IC50 (CYP2C19 [12]): > 12.5 µM
- activity (CYP2C9 [13]): 83%
- % Control activity at (CYP2D6 [14]; direct inhibition, substrate Dextromethorphan, concentration not given, duplicates): 95%
- reversible (direct) inhibition (in words) (CYP2D6 [14]; risdiplam up to 12.5 μM): did not show any significant reversible or time-dependent inhibition; also recorded: No significant reversible or time-dependent inhibition; also recorded: No significant reversible inhibition; also recorded: low potential to cause direct or time-dependent inhibition
